Source: patent US10988502B2, “Alpha-D-galactoside inhibitors of galectins” (GALECTO BIOTECH AB, priority 2016, dated 2021)
Like-named read-outs stand apart in the source and are kept apart here.

How the values were obtained:
galectins = conditions: cited from earlier work
Galectin-1 [1] = target: T1, Galectin-1 (Homo sapiens (Human), UniProt P09382); conditions: read-out: affinity to Galectin-1, cited from earlier work
Target sequence in this assay (P09382 whole entry, species assumed): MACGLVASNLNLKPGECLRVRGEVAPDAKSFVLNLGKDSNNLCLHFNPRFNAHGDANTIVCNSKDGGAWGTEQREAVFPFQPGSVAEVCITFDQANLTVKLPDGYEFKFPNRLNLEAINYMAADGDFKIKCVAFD

Galectin-1 [2] = target: T1, Galectin-1; assay: Fluorescence anisotropy assay, compound as inhibitor of galectin / fluorescein tagged saccharide probe interaction; format: binding
Experimental: (§1) The affinity of Example 1-32 for galectins were determined by a fluorescence anisotropy assay where the compound was used as an inhibitor of the interaction between galectin and a fluorescein tagged saccharide probe as described Sörme, P., Kahl-Knutsson, B., Huflejt, M., Nilsson, U. J., and Leffler H. (2004) Fluorescence polarization as an analytical tool to evaluate galectin-ligand interactions. Anal. Biochem. 334: 36-47, (Sörme et al., 2004) and Monovalent interactions of Galectin-1 By Salomonsson, Emma; Larumbe, Amaia; Tejler, Johan; Tullberg, Erik; Rydberg, Hanna; Sundin, Anders; Khabut, Areej; Frejd, Torbjorn; Lobsanov, Yuri D.; Rini, James M.; et al, From Biochemistry (2010), 49(44), 9518-9532, (Salonmonsson et al., 2010).

Galectin-3 = Galectin-3 (Homo sapiens (Human), UniProt P17931); assay: as above; format: binding
Sequence of Galectin-3 (P17931 whole entry): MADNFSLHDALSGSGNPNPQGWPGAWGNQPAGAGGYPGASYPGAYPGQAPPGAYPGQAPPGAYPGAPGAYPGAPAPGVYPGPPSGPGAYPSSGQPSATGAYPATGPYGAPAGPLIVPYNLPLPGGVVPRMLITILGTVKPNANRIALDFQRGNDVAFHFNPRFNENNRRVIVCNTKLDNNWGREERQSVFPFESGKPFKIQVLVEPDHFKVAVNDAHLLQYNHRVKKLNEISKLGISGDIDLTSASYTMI
Experimental: as §1

[3] = Permeability (Papp) Caco-2 A>B; format: in vitro ADME; conditions: human, apical (A) to basolateral (B) direction
Experimental: (§2) The permeability (Papp) (Caco-2 A>B) was determined from the apical (A) to the basolateral (B) direction in adenocarcinoma cells from human colon. The human hepatic stability (CLint) was determined in human hepatocytes.

[4] = Human hepatic stability (CLint) in human hepatocytes; format: in vitro ADME; conditions: * = no degradation observed under the assay conditions
Experimental: as §2

O=C[C@H](O)[C@@H](O)[C@@H](O)[C@H](O)CO [Galactose, D-galactose]
affinity relative to lactose (galectins; compared with lactose): 50-100 times lower | Kd (Galectin-1 [1]; Tejler et. al. 2009): 10000 µM

OC[C@H]1O[C@@H](O[C@H]2[C@H](O)[C@@H](O)C(O)O[C@@H]2CO)[C@H](O)[C@@H](O)[C@H]1O (stereo partly shown) [Lactose]
Kd (galectins; reviewed by Leffler, 2001, Leffler et al., 2004, read-out: Kd for all galectins): 100 to 1000 µM

OC[C@H]1O[C@H](Sc2cc(Cl)c(F)c(Cl)c2)[C@H](O)[C@@H](n2cc(-c3cscn3)nn2)[C@H]1O [Example 14, 3,5-Dichloro-4-fluoro-phenyl 3-deoxy-3-[4-(4-thiazolyl)-1H-1,2,3-triazol-1-yl]-1-thio-α-D-galactopyranoside]
Kd (Galectin-1 [2]): 0.23 µM | Kd (Galectin-3): 6.2 µM | Papp [3]: 8.8 ×10⁻⁶ cm/s

OC[C@H]1O[C@H](Sc2ccc(Cl)c(Cl)c2)[C@H](O)[C@@H](n2cc(-c3ccsc3)nn2)[C@H]1O [Example 1, 3,4-Dichlorophenyl 3-deoxy-3-[4-(3-thiophenyl)-1H-1,2,3-triazol-1-yl]-1-thio-α-D-galactopyranoside]
Kd (Galectin-1 [2]): 0.14 µM | Kd (Galectin-3): 2.6 µM | Papp [3]: 10.1 ×10⁻⁶ cm/s | CLint scaled [4]: 12.1 mL/min/kg

OCC1O[C@H](Sc2cncc(Br)c2)C(O)[C@@H](n2cc(-c3nccs3)nn2)[C@H]1O (stereo partly drawn) [Example 20, 5-Bromopyrdin-3-yl 3-deoxy-3-[4-(2-thiazolyl)-1H-1,2,3-triazol-1-yl]-1-thio-α-D-galactopyranoside]
Kd (Galectin-1 [2]): 0.55 µM | Kd (Galectin-3): 4.6 µM

OC[C@H]1O[C@H](Sc2ccc(Cl)c(Cl)c2)[C@H](O)[C@@H](n2cc(-c3cscn3)nn2)[C@H]1O [Example 12, 3,4-Dichlorophenyl 3-deoxy-3-[4-(4-thiazolyl)-1H-1,2,3-triazol-1-yl]-1-thio-α-D-galactopyranoside]
Kd (Galectin-1 [2]): 0.31 µM | Kd (Galectin-3): 5.3 µM

OC[C@H]1O[C@H](Sc2cncc(Cl)c2)[C@H](O)[C@@H](n2cc(-c3nccs3)nn2)[C@H]1O [Example 21, 5-Chloropyridin-3-yl 3-deoxy-3-[4-(2-thiazolyl)-1H-1,2,3-triazol-1-yl]-1-thio-α-D-galactopyranoside]
Kd (Galectin-1 [2]): 0.22 µM | Kd (Galectin-3): 1.8 µM

OC[C@H]1O[C@H](Sc2ccc(Cl)c(Cl)c2)[C@H](O)[C@@H](n2cc(-c3nc(Cl)cs3)nn2)[C@H]1O [Example 31, 3,4-Dichlorophenyl 3-deoxy-3-[4-(4-chloro-thiazol-2-yl)-1H-1,2,3-triazol-1-yl]-1-thio-α-D-galactopyranoside]
Kd (Galectin-1 [2]): 0.12 µM | Kd (Galectin-3): 0.46 µM

OCC1O[C@@H](S[C@@H]2O[C@H](CO)C(O)C(n3cc(-c4ccsc4)nn3)[C@H]2O)C(O)[C@@H](n2cc(-c3ccsc3)nn2)[C@H]1O (stereo partly shown)
Kd (Galectin-1 [1]; T. Delaine, 2016, ChemBioChem): < 0.01 µM

OC[C@H]1O[C@H](Sc2ccc(Cl)c(Cl)c2)[C@H](O)[C@@H](n2cc(-c3nccs3)nn2)[C@H]1O [Example 18, 3,4-Dichlorophenyl 3-deoxy-3-[4-(2-thiazolyl)-1H-1,2,3-triazol-1-yl]-1-thio-α-D-galactopyranoside]
Kd (Galectin-1 [2]): 0.24 µM | Kd (Galectin-3): 4.1 µM

OC[C@H]1O[C@H](Sc2cnc(C(F)(F)F)c(Br)c2)[C@H](O)[C@@H](n2cc(-c3ccsc3)nn2)[C@H]1O [Example 4, 5-Bromo-6-trifluoromethyl-pyridin-3-yl 3-deoxy-3-[4-(3-thiophenyl)-1H-1,2,3-triazol-1-yl]-1-thio-α-D-galactopyranoside]
Kd (Galectin-1 [2]): 0.38 µM | Kd (Galectin-3): 1.2 µM | Papp [3]: 2.5 ×10⁻⁶ cm/s | CLint scaled [4]: 11.3 mL/min/kg

OC[C@H]1O[C@H](Sc2ccc(Cl)c(Cl)c2)[C@H](O)[C@@H](n2cc(-c3nc(C(F)(F)F)cs3)nn2)[C@H]1O [Example 32, 3,4-Dichlorophenyl 3-deoxy-3-[4-(4-trifluoromethyl-thiazol-2-yl)-1H-1,2,3-triazol-1-yl]-1-thio-α-D-galactopyranoside]
Kd (Galectin-1 [2]): 0.79 µM | Kd (Galectin-3): 0.21 µM

N#Cc1ncc(Br)cc1S[C@H]1O[C@H](CO)[C@H](O)[C@H](n2cc(-c3nccs3)nn2)[C@H]1O [Example 22, 5-Bromo-2-cyano-pyridine-3-yl 3-deoxy-3-[4-(2-thiazolyl)-1H-1,2,3-triazol-1-yl]-1-thio-α-D-galactopyranoside]
Kd (Galectin-1 [2]): 0.2 µM | Kd (Galectin-3): 1.2 µM

OC[C@H]1O[C@H](Sc2cncc(Br)c2)[C@H](O)[C@@H](n2cc(-c3ccsc3)nn2)[C@H]1O [Example 3, 5-Bromopyridin-3-yl 3-deoxy-3-[4-(3-thiophenyl)-1H-1,2,3-triazol-1-yl]-1-thio-α-D-galactopyranoside]
Kd (Galectin-1 [2]): 0.68 µM | Kd (Galectin-3): 1.7 µM

OC[C@H]1O[C@H](Sc2ccc(Cl)c(Cl)c2)[C@H](O)[C@@H](n2cc(-c3ccc(F)cn3)nn2)[C@H]1O [Example 6, 3,4-Dichlorophenyl 3-deoxy-3-[4-(5-fluoro-2-pyridyl)-1H-1,2,3-triazol-1-yl]-1-thio-α-D-galactopyranoside]
Kd (Galectin-1 [2]): 0.24 µM | Kd (Galectin-3): 0.69 µM

OC[C@H]1O[C@H](Sc2ccc(Cl)c(Cl)c2)[C@H](O)[C@@H](n2cc(-c3ncc(F)s3)nn2)[C@H]1O [Example 30, 3,4-Dichlorophenyl 3-deoxy-3-[4-(5-fluoro-thiazol-2-yl)-1H-1,2,3-triazol-1-yl]-1-thio-α-D-galactopyranoside]
Kd (Galectin-1 [2]): 0.4 µM | Kd (Galectin-3): 1.6 µM

OC[C@H]1O[C@H](Sc2cncc(Br)c2)[C@H](O)[C@@H](n2cc(-c3cccs3)nn2)[C@H]1O [Example 7, 5-Bromopyridin-3-yl 3-deoxy-3-[4-(2-thiophenyl)-1H-1,2,3-triazol-1-yl]-1-thio-α-D-galactopyranoside]
Kd (Galectin-1 [2]): 0.45 µM | Kd (Galectin-3): 1.25 µM

OC[C@H]1O[C@H](Sc2cnc(C(F)(F)F)c(Br)c2)[C@H](O)[C@@H](n2cc(-c3nccs3)nn2)[C@H]1O [Example 26, 5-Bromo-6-trifluoromethyl-pyridine-3-yl 3-deoxy-3-[4-(2-thiazolyl)-1H-1,2,3-triazol-1-yl]-1-thio-α-D-galactopyranoside]
Kd (Galectin-1 [2]): 0.31 µM | Kd (Galectin-3): 2 µM

OC[C@H]1O[C@H](Sc2cnc(C(F)(F)F)c(Br)c2)[C@H](O)[C@@H](n2cc(-c3cscn3)nn2)[C@H]1O [Example 11, 5-Bromo-6-trifluoromethyl-pyridin-3-yl 3-deoxy-3-[4-(4-thiazolyl)-1H-1,2,3-triazol-1-yl]-1-thio-α-D-galactopyranoside]
Kd (Galectin-1 [2]): 0.17 µM | Kd (Galectin-3): 2.9 µM

N#Cc1c(Cl)cc(S[C@H]2OC(CO)[C@H](O)[C@H](n3cc(-c4nccs4)nn3)C2O)cc1Cl (stereo partly drawn) [Example 16, 2,6-Dichloro-bensonitril-4-yl 3-deoxy-3-[4-(2-thiazolyl)-1H-1,2,3-triazol-1-yl]-1-thio-α-D-galactopyranoside]
Kd (Galectin-1 [2]): 0.8 µM | Kd (Galectin-3): 12 µM

OC[C@H]1O[C@H](Sc2cc(Cl)c(Cl)c(Cl)c2)[C@H](O)[C@@H](n2cc(-c3nncs3)nn2)[C@H]1O [Example 19, 3,4,5-Trichlorophenyl 3-deoxy-3-[4-(1,3,4-thiadiazol-2-yl)-1H-1,2,3-triazol-1-yl]-1-thio-α-D-galactopyranoside]
Kd (Galectin-1 [2]): 0.35 µM | Kd (Galectin-3): 4.4 µM

OC[C@H]1O[C@H](Sc2cc(Cl)c(Cl)c(Cl)c2)[C@H](O)[C@@H](n2cc(-c3nccs3)nn2)[C@H]1O [Example 17, 3,4,5-Trichlorophenyl 3-deoxy-3-[4-(2-thiazolyl)-1H-1,2,3-triazol-1-yl]-1-thio-α-D-galactopyranoside]
Kd (Galectin-1 [2]): 0.61 µM | Kd (Galectin-3): 1.3 µM

OCC1O[C@H](Sc2cc(Cl)c(F)c(Cl)c2)C(O)[C@@H](n2cc(-c3nccs3)nn2)[C@H]1O (stereo partly shown) [Example 5]
Papp [3]: 10.5 ×10⁻⁶ cm/s | CLint scaled [4]: 0.38 mL/min/kg
